# Columns and labels:
# Type in all cases: in vivo
# Rhipicephalus microplus [1] = assay: Rhipicephalus (Boophilus) microplus injection test (BOOPMI Inj); conditions: 168 h, injection into adult engorged female ticks, egg deposition after 7 days, read-out: activity (efficacy: 100% means all eggs are infertile); for pest or weed control at 0.02 mg: application rate 20 μg/tick; for pest or weed control at 0.004 mg: application rate 4 μg/tick
# Procedure, shortened: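 Compound in DMSO, 1 μL, injected abdominally into five adult engorged females, which were then held in a climate chamber. Read-out is egg fertility, scored from deposition at 7 days, with unclear eggs followed to hatching (~42 days); 0% means all eggs fertile, 100% all infertile.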
# Diabrotica balteata = Diabrotica balteata spray test; conditions: 168 h, wheat seeds, larvae, after 7 days, read-out: activity (efficacy: 100% means all seedlings have grown up like in the untreated, uninfected control); for pest or weed control at 32 µg/disc, 100 g/ha: application rate 100 g/ha (=32 μg/well); for pest or weed control at 160 µg/disc, 500 g/ha: application rate 500 g/ha (=160 μg/well)
# Procedure, shortened: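 Efficacy (%) was scored 7 days after spraying, with 100% meaning growth like the untreated, uninfected control and 0% meaning no seedling grew. Spray solutions of compound in acetone/DMF with emulsifier-containing water went onto 1-day-germinated wheat seeds, and each unit was then infested with 10-20 banded cucumber beetle larvae.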
# Spodoptera frugiperda = Spodoptera frugiperda spray test; conditions: in Zea mays, 168 h, read-out: activity (mortality)
# Procedure, shortened: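 Percent kill of fall armyworm caterpillars was assessed 7 days after infesting dried, treated maize leaf sections. Treatment was a spray of compound in acetone/dimethylformamide, diluted with water containing emulsifier at 1000 ppm.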
# [2] = system: Culex quinquefasciatus strain P00; assay: Culex quinquefasciatus test (CULXFA surface treatment & contact assay); conditions: surface concentration 20 mg/m^2, glazed tile, exposure 30 minutes, 24 hours after contact, read-out: efficacy (mortality)
# Experimental: Culex quinquefasciatus Test (CULXFA Surface Treatment & Contact Assay) Solvent: Aceton+2000 ppm rapeseed oil methyl ester (RME)
# (§1) In order to produce a sufficient, active ingredient containing solution it is necessary to solve the test compound in the solvent-mix (acetone at 2 mg/ml/RME 2 000 ppm). This solution is pipetted onto a glazed tile and after evaporation of the acetone, adult mosquitoes of the species Culex quinquefasciatus strain P00 are placed onto the dried surface. The exposure time is 30 minutes. Mortality in percent (%) is determined 24 hours after contact of the insects to the treated surface. 100% mortality means that all tested insects are dead, whereas 0% means that no insect died.
# [3] = system: Aedes aegypti strain MONHEIM; assay: Aedes aegypti test (AEDSAE surface treatment & contact assay); conditions: exposure 30 minutes, 24 hours after contact, read-out: efficacy (mortality); for mortality at 20 mg/m2: surface concentration 20 mg/m^2, glazed tile
# Procedure, shortened: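 Compound dissolved in acetone (2 mg/ml) with 2000 ppm rapeseed oil methyl ester, pipetted onto glazed tile and dried. Adult mosquitoes exposed on the surface for 30 min; percent mortality scored 24 h after contact.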
# [4] = system: Musca domestica strain WHO—N; assay: Musca domestica test (MUSCDO surface treatment & contact assay); conditions: surface concentration 20 mg/m^2, glazed tile, exposure 30 minutes, 24 hours after contact, read-out: efficacy (mortality)
# Procedure, shortened: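 Compound dissolved in acetone (2 mg/ml) with 2000 ppm rapeseed oil methyl ester and pipetted onto glazed tile; after acetone evaporation, adult flies exposed to dried surface for 30 minutes. Mortality (%) scored 24 hours after contact.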
# Rhipicephalus sanguineus = Rhipicephalus sanguineus in-vitro contact test, adult brown dog ticks (RHIPSA Cont); conditions: 48 h, after 48 hours, read-out: activity (efficacy: 100% means all ticks are dead or moribund); for pest or weed control at 1 µg/cm2, 100 g/ha: application rate 1 μg/cm^2 (=100 g/ha); for pest or weed control at 5 µg/cm2, 500 g/ha: application rate 5 μg/cm^2 (=500 g/ha)
# Procedure, shortened: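 Mortality of adult R. sanguineus was judged 48 h after contact with acetone-applied residues on glass tube walls. Ticks that stayed immotile or moved without coordination when heated to 45–50 °C (max 5 min) counted as dead or moribund.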
# [5] = system: Anopheles funestus strain FUMOZ-R; assay: Anopheles funestus test (ANPHFU surface treatment & contact assay); conditions: exposure 30 minutes, 24 hours after contact, read-out: efficacy (mortality); for mortality at 20 mg/m2: surface concentration 20 mg/m^2, glazed tile
# Experimental: Anopheles funestus Test (ANPHFU Surface Treatment & Contact Assay) Solvent: Aceton+2000 ppm rapeseed oil methyl ester (RME)
# as §1, with “2000” for “2 000”, “Anopheles funestus” for “Culex quinquefasciatus”, “FUMOZ-R (Hunt et al., Med. Vet. Entomol. 2005 September; 19(3): 271-275)” for “P00”
# Nezara viridula = Nezara viridula spray test; conditions: in Hordeum vulgare, 96 h, application rate 500 g/ha, barley plants, larvae, after 4 days
# Procedure, shortened: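 Mortality was read at day 4 (0% = no kill, 100% = total kill) after spraying larva-infested barley plants. Test solutions were made from an acetone/DMF concentrate diluted with water holding 1000 ppm alkylarylpolyglycol ether emulsifier.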
# Myzus persicae [6] = assay: Myzus persicae oral test; conditions: 120 h, read-out: activity (mortality)
# Procedure, shortened: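 Percent mortality was recorded at day 5, where 0% means no aphids killed. Compound prepared from an acetone concentrate diluted in water and combined with IPL41 medium containing sugar was offered to mixed-stage green peach aphids, which sucked it through a parafilm seal.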
# Rhipicephalus microplus [7] = assay: Rhipicephalus (Boophilus) microplus dip test (BOOPMI Dip); conditions: 168 h, application rate 100 ppm, engorged adult female ticks, after 7 days, read-out: activity (efficacy: 100% means all eggs are infertile)
# Experimental: Rhipicephalus (Boophilus) Microplus—Dip Test (BOOPMI Dip)
# Test Animal: cattle ticks (Rhipicephalus microplus) strain parkhurst, SP-resistant Solvent: dimethyl sulfoxide
# To produce a suitable preparation of active compound, 10 mg of active compound are dissolved in 0.5 mL solvent, and the concentrate is diluted with water to the desired concentration.
# This compound solution is pipetted into tubes. 8-10 engorged, adult, female cattle ticks (Rhipicephalus microplus) are placed in perforated tubes. These tubes are immersed in the aqueous compound solution until the ticks are completely moistened. After the liquid has drained off, the ticks are transferred to a filter paper in a plastic tray and stored in a climate chamber.
# After 7 days egg deposition of fertile eggs is monitored. Eggs where fertility is not visible are stored in a climate chamber till hatching after about 42 days. An efficacy of 100% means all eggs are infertile; 0% means all eggs are fertile.
# Ctenocephalides felis [8] = assay: Ctenocephalides felis oral test (CTECFE Oral); conditions: 48 h, read-out: activity (mortality)
# Procedure, shortened: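 Percent mortality was recorded 2 days after roughly 20 adult Ctenocephalides felis fed on treated cattle blood. The blood was warmed to 37 °C beneath a parafilm membrane, with the fleas kept at room temperature. Compound was dissolved in DMSO and diluted into the blood to test concentration.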
# Rhipicephalus microplus [9] = assay: Rhipicephalus (Boophilus) microplus in-vitro contact test, larval cattle tick, strain Parkhurst (BOOPMI Cont); conditions: application rate 5 μg/cm^2 (=500 g/ha), tick larvae, after 48 hours, read-out: activity (efficacy: 100% means all larvae are dead or moribund)
# Procedure, shortened: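 After 48 h at 27° C. and 85% humidity, percent dead or moribund larvae was scored from negative geotactic behaviour. Larvae (20-50, Parkhurst strain, synthetic pyrethroid-resistant) were exposed in tubes coated with compound from acetone, 900 ppm corresponding to 5 μg/cm^2.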
# Ctenocephalides felis [10] = assay: Ctenocephalides felis in-vitro contact test, adult cat flea (CTECFE Cont); conditions: application rate 5 μg/cm^2 (=500 g/ha), adult cat fleas, after 48 hours, read-out: activity (efficacy: 100% means all fleas are dead or moribund)
# Procedure, shortened: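 Efficacy, as percent of fleas dead or moribund, was scored 48 h after adults (5-10 per tube) were placed in glass tubes whose walls carried dried compound at 5 μg/cm^2 (900 ppm solution). Moribund meant failing to climb away from a 45-50° C. hot plate within 5 min.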
# Myzus persicae [11] = assay: Myzus persicae spray test; conditions: in Brassica rapa, foliar, 120 h; for mortality at 500 g/ha: read-out: activity (mortality), application rate 500 g/ha, spray, Chinese cabbage leaf disks, after 5 days
# Experimental: Myzus persicae—Spray Test Solvent: 78.0 parts by weight acetone • 1.5 parts by weight dimethylformamide Emulsifier: alkylarylpolyglycol ether To produce a suitable preparation of active compound, 1 part by weight of active compound is mixed with the stated amount of solvents and is diluted with water, containing an emulsifier concentration of 1000 ppm, to the desired concentration. Further test concentrations are prepared by dilution with emulsifier containing water.
# Chinese cabbage (Brassica pekinensis) leaf disks infected with all instars of the green peach aphid (Myzus persicae), are sprayed with a preparation of the active ingredient of the desired concentration.
# After 5 days mortality in % is determined. 100% means all aphids have been killed and 0% means none of the aphids have been killed.
# [12] = surface concentration 4 mg/m^2, glazed tile
Structure (SMILES),pest or weed control at 0.02 mg (Rhipicephalus microplus [1]) [%],"pest or weed control at 32 µg/disc, 100 g/ha (Diabrotica balteata) [%]","pest or weed control at 160 µg/disc, 500 g/ha (Diabrotica balteata) [%]",mortality at 100 g/ha (Spodoptera frugiperda) [%],mortality at 500 g/ha (Spodoptera frugiperda) [%],mortality at 20 mg/m2 [2] [%],mortality at 20 mg/m2 [3] [%],"pest or weed control at 1 µg/cm2, 100 g/ha (Rhipicephalus sanguineus) [%]","pest or weed control at 5 µg/cm2, 500 g/ha (Rhipicephalus sanguineus) [%]",mortality at 20 mg/m2 [5] [%],pest or weed control at 0.004 mg (Rhipicephalus microplus [1]) [%],mortality at 100 ppm (Ctenocephalides felis [8]) [%],pest or weed control at 5 µg/cm2 (Rhipicephalus microplus [9]) [%],pest or weed control at 5 µg/cm2 (Ctenocephalides felis [10]) [%],further results
C[C@H](NC(=O)c1cccc(C(F)(F)F)n1)c1ncnn1-c1ccc(C#N)cn1 [II-4],100,80,100,100,100,80 to 100,80 to 100,100,100,80 to 100,,,,,"mortality at 20 mg/m2 [4]: 80 to 100%; mortality at 4 mg/m2 [5, 12]: 80 to 100%"
CC(C)c1nc([C@H](C)NC(=O)c2cc(C(F)(F)F)cc(C(F)(F)F)c2)n(-c2ccc(C#N)cn2)n1 [I-7],100,100,100,100,83,,,100,,,100,100,100,,mortality at 500 g/ha (Nezara viridula): 100%; mortality at 4 ppm (Myzus persicae [6]): 100%; pest or weed control at 100 ppm (Rhipicephalus microplus [7]): 100%
C[C@H](NC(=O)c1cc(Cl)cc(C(F)(F)F)c1)c1ncnn1-c1cnc(C#N)cn1 [II-1],100,,100,100,100,80 to 100,80 to 100,,80,,100,100,90,90,"mortality at 4 mg/m2 [3, 12]: 80 to 100%"
C[C@H](NC(=O)c1cc(Cl)cc(C(F)(F)F)c1)c1ncnn1-c1cc(-n2ccc(C(F)(F)F)n2)ccn1 [II-42],0,100,100,100,100,80 to 100,,,,80 to 100,80,,90,,
C[C@H](NC(=O)c1cc(Cl)cc(OC(F)(F)F)c1)c1ncnn1-c1ncc(OC(F)F)cn1 [II- 30],,,,,,80 to 100,,,,,,,,,
CC(C)c1nc([C@H](C)NC(=O)c2cc(Cl)cc(C(F)(F)F)c2)n(-c2ccc(C#N)cn2)n1 [I-8],100,100,100,100,100,,80 to 100,,,,100,,80,80,pest or weed control at 100 ppm (Rhipicephalus microplus [7]): 100%
CC(C)N(C)C(=O)c1ccc(-n2ncnc2[C@H](C)NC(=O)c2cc(Cl)cc(C(F)(F)F)c2)nc1 [II-26],100,,,83,100,,80 to 100,100,80,80 to 100,100,,100,100,mortality at 500 g/ha (Myzus persicae [11]): 100%
"CC(C)C(=O)Nc1ccc(-n2ncnc2[C@H](C)NC(=O)c2cc(Cl)cc(C(F)(F)F)c2)nc1 [II-2, 3-chloro-N-[(1S)-1-{1-[5-(isobutyrylamino)pyridin-2-yl]-1H-1,2,4-triazol-5-yl}ethyl]-5-(trifluoromethyl)benzamide]",100,100,100,,,80 to 100,,,,,100,100,100,90,"mortality at 100 g/ha (Myzus persicae [11]; read-out: activity (mortality), application rate 100 g/ha, spray, Chinese cabbage leaf disks, after 5 days): 100%; mortality at 500 g/ha (Myzus persicae [11]): 90%; mortality at 500 g/ha (Nezara viridula): 90%"
